Assay results: patent US9801880B2, “Use of kinase inhibitors” (BerGenBio AS, priority 2013, dated 2017)
pKd: −log10 of the molar value.

Tests used:
Abl (T315I) = Abl (T315I) (Homo sapiens, UniProt P00519, T315I); assay: KinomeScan competition binding assay; design: purchased DiscoveRx Corporation (KinomeScan service)
Text: (§1) Detailed assay methodologies can be found in the relevant references cited herein, or in the KinaseProfiler Service Assay Protocols (v54, 2011) available from EMD Millipore (www.emdmillipore.com), or from the KinomeScan website (www.kinomescan.com), as appropriate. (For a more detailed description of KINOMEscan's assay technology, see: Fabian et al. A small molecule-kinase interaction map for clinical kinase inhibitors. Nat. Biotechnol. 23, 329-336 (2005)). A summary is provided below.
(§2) KinomeScan™ assays (DiscoveRx Corporation, San Diego, Calif., USA) are active-site-directed competition binding assays. […] The amount of kinase captured in test versus control samples is determined by using a qPCR method that detects the associated DNA label on each kinase molecule. Dissociation constants (Kd) for test compound-kinase interactions are calculated by measuring the amount of kinase captured on the solid support as a function of the test compound concentration.

Abl(Y253F) = Abl(Y253F) (Homo sapiens, UniProt P00519, Y253F); assay: KinomeScan competition binding assay; design: purchased DiscoveRx Corporation (KinomeScan service)
Text: as §1, §2

c-Kit (D816V) = c-Kit (D816V) (Homo sapiens, UniProt P10721, D816V); assay: KinomeScan competition binding assay; design: purchased DiscoveRx Corporation (KinomeScan service)
c-Kit (D816V), sequence (P10721 26-976 D816V): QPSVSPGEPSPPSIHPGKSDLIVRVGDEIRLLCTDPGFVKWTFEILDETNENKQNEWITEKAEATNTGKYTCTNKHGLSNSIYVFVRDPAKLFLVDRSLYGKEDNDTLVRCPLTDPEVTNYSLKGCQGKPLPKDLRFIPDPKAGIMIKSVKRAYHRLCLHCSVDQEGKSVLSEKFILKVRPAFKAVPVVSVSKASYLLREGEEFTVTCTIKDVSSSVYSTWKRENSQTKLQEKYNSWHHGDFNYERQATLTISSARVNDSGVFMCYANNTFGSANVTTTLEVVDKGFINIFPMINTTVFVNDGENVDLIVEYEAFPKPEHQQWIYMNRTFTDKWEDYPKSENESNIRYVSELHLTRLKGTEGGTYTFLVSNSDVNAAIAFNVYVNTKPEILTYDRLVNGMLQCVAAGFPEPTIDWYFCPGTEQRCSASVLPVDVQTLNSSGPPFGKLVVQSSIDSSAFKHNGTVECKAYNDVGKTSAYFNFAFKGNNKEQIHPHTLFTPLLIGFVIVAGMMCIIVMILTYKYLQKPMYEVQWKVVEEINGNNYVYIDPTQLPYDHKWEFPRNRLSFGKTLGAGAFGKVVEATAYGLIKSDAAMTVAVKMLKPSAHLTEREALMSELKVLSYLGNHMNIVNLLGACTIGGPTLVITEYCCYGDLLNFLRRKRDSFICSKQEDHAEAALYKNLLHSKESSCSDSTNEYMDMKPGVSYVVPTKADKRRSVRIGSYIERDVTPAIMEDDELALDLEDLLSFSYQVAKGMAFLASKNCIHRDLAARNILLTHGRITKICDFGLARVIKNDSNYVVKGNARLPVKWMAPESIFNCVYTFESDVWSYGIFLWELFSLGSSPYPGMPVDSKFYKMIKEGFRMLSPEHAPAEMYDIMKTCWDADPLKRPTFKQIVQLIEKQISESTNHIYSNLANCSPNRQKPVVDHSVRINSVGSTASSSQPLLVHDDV
Text: as §1, §2

Wee1 = Wee1 (Homo sapiens, UniProt P30291); assay: KinomeScan competition binding assay; design: purchased DiscoveRx Corporation (KinomeScan service)
Text: as §1, §2

Abl(H396P) = Abl(H396P) (Homo sapiens, UniProt P00519, H396P); assay: KinomeScan competition binding assay; design: purchased DiscoveRx Corporation (KinomeScan service)
Text: as §1, §2

c-Kit (D816H) = c-Kit (D816H) (Homo sapiens, UniProt P10721, D816H); assay: KinomeScan competition binding assay; design: purchased DiscoveRx Corporation (KinomeScan service)
c-Kit (D816H), sequence (P10721 26-976 D816H): as the sequence (P10721 26-976 D816V) above, with V791H counted along it
Text: as §1, §2

Stk10 = Stk10 (Homo sapiens, UniProt O94804); assay: KinomeScan competition binding assay; design: purchased DiscoveRx Corporation (KinomeScan service)
Text: as §1, §2

TEK = TEK (Homo sapiens, UniProt Q02763); assay: KinomeScan competition binding assay; design: purchased DiscoveRx Corporation (KinomeScan service)
TEK, sequence (Q02763 23-1124): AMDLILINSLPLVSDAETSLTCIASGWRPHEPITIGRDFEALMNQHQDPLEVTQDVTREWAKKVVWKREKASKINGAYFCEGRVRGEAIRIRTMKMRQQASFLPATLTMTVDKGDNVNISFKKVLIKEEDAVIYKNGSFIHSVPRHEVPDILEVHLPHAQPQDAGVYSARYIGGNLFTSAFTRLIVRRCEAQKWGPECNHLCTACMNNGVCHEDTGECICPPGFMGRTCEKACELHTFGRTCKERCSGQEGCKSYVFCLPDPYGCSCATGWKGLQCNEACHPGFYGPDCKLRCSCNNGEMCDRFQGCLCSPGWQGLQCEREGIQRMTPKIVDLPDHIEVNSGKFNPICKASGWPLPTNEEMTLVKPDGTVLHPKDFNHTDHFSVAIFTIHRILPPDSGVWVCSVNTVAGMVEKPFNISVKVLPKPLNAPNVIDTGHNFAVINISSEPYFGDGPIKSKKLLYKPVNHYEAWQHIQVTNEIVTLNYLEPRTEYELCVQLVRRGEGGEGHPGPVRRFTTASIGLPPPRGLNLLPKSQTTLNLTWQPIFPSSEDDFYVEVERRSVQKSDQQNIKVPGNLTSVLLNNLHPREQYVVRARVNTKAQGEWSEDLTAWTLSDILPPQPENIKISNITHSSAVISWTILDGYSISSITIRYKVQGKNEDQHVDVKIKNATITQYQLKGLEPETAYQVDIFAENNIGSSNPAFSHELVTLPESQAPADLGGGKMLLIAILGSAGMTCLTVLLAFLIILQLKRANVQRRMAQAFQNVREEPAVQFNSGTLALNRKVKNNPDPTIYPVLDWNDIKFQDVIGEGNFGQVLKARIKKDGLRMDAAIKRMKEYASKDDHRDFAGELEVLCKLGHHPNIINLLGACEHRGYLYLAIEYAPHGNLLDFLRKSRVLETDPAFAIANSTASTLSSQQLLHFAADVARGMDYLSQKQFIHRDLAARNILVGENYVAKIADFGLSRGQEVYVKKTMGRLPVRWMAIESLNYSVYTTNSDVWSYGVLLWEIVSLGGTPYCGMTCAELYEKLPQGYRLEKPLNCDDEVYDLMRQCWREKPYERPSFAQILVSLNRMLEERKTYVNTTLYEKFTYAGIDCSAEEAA
Text: as §1, §2

Ret (V804L) = Ret (V804L) (Homo sapiens, UniProt P07949, V804L); assay: KinomeScan competition binding assay; design: purchased DiscoveRx Corporation (KinomeScan service)
Ret (V804L), sequence (P07949 29-1114 V804L): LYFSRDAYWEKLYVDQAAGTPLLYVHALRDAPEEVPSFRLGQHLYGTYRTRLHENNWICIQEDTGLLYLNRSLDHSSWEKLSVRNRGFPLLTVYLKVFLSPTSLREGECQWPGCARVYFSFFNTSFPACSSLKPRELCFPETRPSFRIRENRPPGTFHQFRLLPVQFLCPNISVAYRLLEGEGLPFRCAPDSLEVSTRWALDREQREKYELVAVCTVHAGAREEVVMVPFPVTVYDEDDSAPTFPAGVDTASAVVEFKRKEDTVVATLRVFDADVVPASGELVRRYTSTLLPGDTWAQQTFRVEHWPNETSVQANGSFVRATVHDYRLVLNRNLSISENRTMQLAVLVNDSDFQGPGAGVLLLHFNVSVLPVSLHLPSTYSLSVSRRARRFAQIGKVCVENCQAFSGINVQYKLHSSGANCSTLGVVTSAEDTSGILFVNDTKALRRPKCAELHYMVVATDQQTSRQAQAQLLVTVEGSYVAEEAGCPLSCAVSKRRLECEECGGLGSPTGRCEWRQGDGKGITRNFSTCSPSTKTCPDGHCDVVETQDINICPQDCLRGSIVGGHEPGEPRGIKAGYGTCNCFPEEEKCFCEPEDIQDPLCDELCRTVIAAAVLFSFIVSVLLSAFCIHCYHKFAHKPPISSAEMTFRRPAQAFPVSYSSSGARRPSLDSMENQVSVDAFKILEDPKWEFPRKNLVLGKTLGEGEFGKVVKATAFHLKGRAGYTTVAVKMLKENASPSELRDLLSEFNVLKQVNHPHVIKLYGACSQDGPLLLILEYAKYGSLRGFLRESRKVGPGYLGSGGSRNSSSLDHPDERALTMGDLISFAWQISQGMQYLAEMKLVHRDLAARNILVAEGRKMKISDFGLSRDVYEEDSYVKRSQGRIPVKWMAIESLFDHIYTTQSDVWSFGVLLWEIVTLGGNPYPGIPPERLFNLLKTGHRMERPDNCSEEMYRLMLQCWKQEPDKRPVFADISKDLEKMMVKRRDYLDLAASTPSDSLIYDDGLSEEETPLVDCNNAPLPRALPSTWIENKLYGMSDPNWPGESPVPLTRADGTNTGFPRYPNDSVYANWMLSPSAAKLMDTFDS
Text: as §1, §2

Yes = Yes (Homo sapiens, UniProt P07947); assay: KinomeScan competition binding assay; design: purchased DiscoveRx Corporation (KinomeScan service)
Yes, sequence (P07947 whole entry): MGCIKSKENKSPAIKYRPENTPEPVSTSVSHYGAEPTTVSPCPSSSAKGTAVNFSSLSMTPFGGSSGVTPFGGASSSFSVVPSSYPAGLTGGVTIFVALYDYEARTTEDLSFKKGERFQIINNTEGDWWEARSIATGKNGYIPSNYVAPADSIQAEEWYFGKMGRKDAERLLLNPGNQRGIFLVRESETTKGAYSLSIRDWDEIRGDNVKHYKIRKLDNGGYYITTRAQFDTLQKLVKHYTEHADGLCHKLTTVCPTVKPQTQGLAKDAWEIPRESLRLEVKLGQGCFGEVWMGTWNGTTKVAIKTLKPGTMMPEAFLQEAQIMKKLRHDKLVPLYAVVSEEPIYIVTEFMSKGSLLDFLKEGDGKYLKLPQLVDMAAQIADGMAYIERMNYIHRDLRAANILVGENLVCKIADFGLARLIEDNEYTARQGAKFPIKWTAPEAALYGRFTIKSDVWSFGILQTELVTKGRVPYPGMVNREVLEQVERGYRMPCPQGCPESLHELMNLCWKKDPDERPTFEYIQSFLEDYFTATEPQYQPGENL
Text: as §1, §2

Tyro3 = Tyro3 (Homo sapiens, UniProt Q06418); assay: KinomeScan competition binding assay; design: purchased DiscoveRx Corporation (KinomeScan service)
Tyro3, sequence (Q06418 41-890): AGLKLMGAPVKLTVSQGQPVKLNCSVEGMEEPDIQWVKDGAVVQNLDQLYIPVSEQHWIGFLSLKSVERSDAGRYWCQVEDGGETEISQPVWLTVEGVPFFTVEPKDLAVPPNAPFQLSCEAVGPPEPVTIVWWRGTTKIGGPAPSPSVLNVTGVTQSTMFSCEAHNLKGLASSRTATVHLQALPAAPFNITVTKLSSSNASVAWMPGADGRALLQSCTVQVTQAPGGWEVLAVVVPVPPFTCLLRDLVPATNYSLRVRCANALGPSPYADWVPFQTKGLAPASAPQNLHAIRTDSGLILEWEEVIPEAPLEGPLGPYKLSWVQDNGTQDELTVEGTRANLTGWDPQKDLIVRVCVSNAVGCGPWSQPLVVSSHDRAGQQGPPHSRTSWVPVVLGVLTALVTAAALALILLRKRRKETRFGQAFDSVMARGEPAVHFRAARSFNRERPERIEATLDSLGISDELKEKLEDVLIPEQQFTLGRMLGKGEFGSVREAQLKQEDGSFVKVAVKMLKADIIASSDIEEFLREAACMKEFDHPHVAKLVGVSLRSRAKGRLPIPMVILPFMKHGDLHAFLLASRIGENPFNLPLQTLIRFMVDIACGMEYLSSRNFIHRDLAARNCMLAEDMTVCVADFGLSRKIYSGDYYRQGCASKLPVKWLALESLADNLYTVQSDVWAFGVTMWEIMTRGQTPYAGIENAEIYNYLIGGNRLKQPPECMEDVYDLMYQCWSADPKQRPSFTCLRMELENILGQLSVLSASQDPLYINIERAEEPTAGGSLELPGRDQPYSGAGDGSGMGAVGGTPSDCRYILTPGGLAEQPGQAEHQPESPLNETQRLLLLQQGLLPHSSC
Text: as §1, §2

Ret (V804M) = Ret (V804M) (Homo sapiens, UniProt P07949, V804M); assay: KinomeScan competition binding assay; design: purchased DiscoveRx Corporation (KinomeScan service)
Ret (V804M), sequence (P07949 29-1114 V804M): as the sequence (P07949 29-1114 V804L) above, with L776M counted along it
Text: as §1, §2

Flt4 = Flt4 (Homo sapiens, UniProt P35916); assay: KinomeScan competition binding assay; design: purchased DiscoveRx Corporation (KinomeScan service)
Text: as §1, §2

Abl(Q252H) = Abl(Q252H) (Homo sapiens, UniProt P00519, Q252H); assay: KinomeScan competition binding assay; design: purchased DiscoveRx Corporation (KinomeScan service)
Text: as §1, §2

Ret = Ret (Homo sapiens, UniProt P07949); assay: KinomeScan competition binding assay; design: purchased DiscoveRx Corporation (KinomeScan service)
Ret, sequence (P07949 29-1114): as the sequence (P07949 29-1114 V804L) above, with L776V counted along it
Text: as §1, §2

Flt3 (D835Y) = Flt3 (D835Y) (Homo sapiens, UniProt P36888, D835Y); assay: KinomeScan competition binding assay; design: purchased DiscoveRx Corporation (KinomeScan service)
Text: as §1, §2

[1] = test system: Ba/F3 cells (WT, FLT3 WT, FLT3-ITD, D835Y); assay: Annexin V-PI apoptosis/cell death assay, four Ba/F3 cell lines; assay type: cell-based, Murine
Text: Murine pro-B lymphocyte line Ba/F3 wild type (Ba/F3 WT), and Ba/F3 lines stably transduced with expression vectors that encoded wild-type human FLT3 (Ba/F3 FLT3 WT cells) or human FLT3 containing an ITD mutation (Ba/F3-ITD cells) or D835Y (Ba/F3 D835Y cells) point mutations, which lead to constitutively functional activation of the protein, were obtained from Bjørn Tore Gjertsen (Department of Clinical Science, Hematology Section, University of Bergen, Bergen, Norway). Ba/F3 WT, Ba/F3 FLT3 WT and Ba/F3 835Y cells were maintained in RPMI-1640 medium, containing 10% fetal calf serum (FCS, HyClone, Logan, UT), 2 mM L-glutamine and 50 U/mL penicillin-streptomycin (Sigma-Aldrich, Inc, St Louis, Mo., USA), and 10% WEHI-3B conditioned medium as a source of murine interleukin-3 (mIL-3). […]
Quantification of apoptotic and necrotic cells was determined by measuring externalization of phosphatidylserine with annexin V, conjugated to Alexa® Fluor 647 (Invitrogen, Molecular Probes, OR, USA) and using propidium iodide (PI; Sigma-Aldrich) as a dead-cell counterstain. […] After drug treatment cells were stained according the manufacturer's protocol, and subsequently analysed on an Accuri C6 flow cytometer (Becton Dickinson Immunocytometry Systems, San Jose, Calif., USA). […] The percent viable cells are expressed as percentage of untreated cells, performed in a single experiment.

Nc1nc(Nc2ccc3c(c2)CC[C@@H](N2CCCC2)CC3)nn1-c1cc2c(nn1)-c1ccccc1CCC2 [Compound A, 1-(6,7-dihydro-5H-benzo[6,7]cyclohepta[1,2-c]pyridazine-3-yl)-N^3-(7-(S)-(pyrrolidin-1-yl)-6,7,8,9-tetrahydro-5H-benzo[7]annulene-2-yl)-1H-1,2,4-triazole-3,5-diamine]
Kd (Abl (T315I)): 10 nM | Kd (Abl(Y253F)): 18 nM | pKd (c-Kit (D816V)): 7.99 | Kd (Wee1): 17 nM | Kd (Abl(H396P)): 57 nM | pKd (c-Kit (D816H)): 7.20 | Kd (Stk10): 9.2 nM | Kd (TEK): 270 nM | Kd (Ret (V804L)): 90 nM | Kd (Yes): 810 nM | Kd (Tyro3): > 1000 nM | Kd (Ret (V804M)): 72 nM | Kd (Flt4): 460 nM | Kd (Abl(Q252H)): 112 nM | Kd (Ret): 73 nM | Kd (Flt3 (D835Y)): 11.2 nM | therapeutic window ([1]; investigated Ba/F3 cell lines, 48 hours): 0.5 to 3 µM | induction of apoptosis at higher doses ([1]; ≧3 μM, all cell lines regardless of FLT3 status): massive induction of apoptosis
